The values that follow come from paper PMC11245619, “Asymmetric total synthesis of polycyclic xanthenes and discovery of a WalK activator active against MRSA” (Nature Communications, 2024).

In general, pKd refers to the Kd on a negative log10 scale, so that one unit is a factor of ten.

The subject of experiment [1] is T1, Staphylococcus aureus ATCC 29213 (SA29213).
T1 construct: ATCC 29213
Briefly: microbe, parasite or virus in culture. The note with it: ATCC29213, 24 h, read-out: MIC. Details: broth microdilution MIC (CLSI), growth inhibition read by MTT. As to the method:
Antibacterial activities of synthetic compounds in vitro The MICs of the antibacterial agents for all strains were determined using the broth microdilution method according to CLSI guidelines. Wells of 96-well microtiter plates (Nunc, Thermo Fisher Scientific Inc., Roskilde) were inoculated with 100 µL of CAMH broth or CAMH broth with 3% lysed horse blood (S. pneumoniae only), containing serially-diluted antimicrobials and a final inoculum of 5 × 10^5 CFU/mL. The concentration ranges were from 0.0625 to 128 μg/mL for each compound: daptomycin, vancomycin, polymyxin B and oxacillin. The microtiter plates were incubated at 37 °C for 24 h. The MIC was defined as the lowest concentration of an antimicrobial agent that inhibited 90% of bacterial growth determined by the MTT assay (MCE, USA)]. All MIC determinations were performed in duplicate.

Experiment [2] deals with T2, WalK (erWalKR86C) (Staphylococcus aureus, UniProt Q6GKS6, R86C).
T2 construct: erWalK (residues 35-182) with R86C mutation
T2 sequence (Q6GKS6 35-182 R86C): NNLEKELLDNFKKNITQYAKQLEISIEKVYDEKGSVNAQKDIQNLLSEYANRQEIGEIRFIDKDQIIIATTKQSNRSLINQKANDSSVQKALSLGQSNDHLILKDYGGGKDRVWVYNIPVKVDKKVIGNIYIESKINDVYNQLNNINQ
The experiment can be described thus: SPR (Biacore 8K, CM5 chip). The experiment is classed as binding.

Experiment [3] concerns the target T3, WalK (erWalK) (Staphylococcus aureus, UniProt Q6GKS6).
T3 construct: extracellular part of the receptor WalK (erWalK, residues 35-182)
The experiment can be described thus: SPR (Biacore 8K, CM5 chip). The class given is binding. A general note: In SPR one partner is held on a chip, and binding of the other changes the refractive index at the surface.

pKd: −log10 of the molar value. Values after ≈ are worked out from the molar mass of the structure shown.

Take `CC(=O)NC[C@H]1CN(c2ccc(N3CCOCC3)c(F)c2)C(=O)O1` [Linezolid]: in experiment [1], the MIC came to 2.5 µg/mL (≈ 7.41 µM).

For the molecule `CC(C)C(=O)c1c(O)c(C(C2=C(O)C(C)(C)C(=O)C(C)(C)C2=O)C(C)C)c(O)c2c1OC1=C(C(=O)C(C)(C)C(=O)C1(C)C)C2C(C)C` (stereo not drawn) [compound 22, 22], the pKd is 4.13 in experiment [2] and 4.95 in experiment [3]. The MIC in experiment [1] is 0.5 µg/mL (≈ 0.768 µM). As to `NC[C@H]1O[C@H](O[C@H]2[C@H](O)[C@@H](O[C@H]3O[C@H](CO)[C@@H](O)[C@H](N)[C@H]3O)[C@H](N)C[C@@H]2N)[C@H](O)[C@@H](O)[C@@H]1O` [Kanamycin], in experiment [1], the MIC is 10 µg/mL (≈ 20.6 µM). Consider `CN[C@H](CC(C)C)C(=O)N[C@H]1C(=O)N[C@@H](CC(N)=O)C(=O)N[C@H]2C(=O)N[C@H]3C(=O)N[C@H](C(=O)N[C@H](C(=O)O)c4cc(O)cc(O)c4-c4cc3ccc4O)[C@H](O)c3ccc(c(Cl)c3)Oc3cc2cc(c3O[C@@H]2O[C@H](CO)[C@@H](O)[C@H](O)[C@H]2O[C@H]2C[C@](C)(N)[C@H](O)[C@H](C)O2)Oc2ccc(cc2Cl)[C@H]1O` [Vancomycin], for which, in experiment [1], the MIC worked out at 1 µg/mL (≈ 0.69 µM). For the molecule `CC1COc2c(N3CCN(C)CC3)c(F)cc3c(=O)c(C(=O)O)cn1c23` (stereo not drawn) [Ofloxacin], in experiment [1], the MIC worked out at 0.2 µg/mL (≈ 0.553 µM).

As to `C[C@@H](O)[C@H]1C(=O)N2C(C(=O)O)=C(S[C@@H]3CN[C@H](C(=O)N(C)C)C3)[C@H](C)[C@H]12` [Meropenem], the MIC in experiment [1] came out at 0.312 µg/mL (≈ 0.815 µM). For the molecule `CN(C)c1cc(NC(=O)CNC(C)(C)C)c(O)c2c1C[C@H]1C[C@H]3[C@H](N(C)C)C(O)=C(C(N)=O)C(=O)[C@@]3(O)C(O)=C1C2=O` [Tigecycline], in experiment [1], the MIC turned out to be 0.312 µg/mL (≈ 0.534 µM).
